Here are results for seven compounds from patent US4220771A, “2,3-Polymethylene-4-oxo-4H-pyrido[1,2-a]pyrimidines” (Chinoin Gyogyszer es Vegyeszeti Termekek Gyara Rt, priority 1977, dated 1980).

In general, ED50 refers to the dose that gives a 50% effect, or the effect in half of the subjects. By LD50 is commonly meant the dose at which mortality reaches 50%. A lower LD50 goes with a more toxic substance.

Structures can show the parent of a compound that is named as a salt.

Format in all cases: in vivo
For data set [1], the system named is mice. The data set can be described thus: morphine-potentiating activity. The conditions noted are these: i.v., with 5 mg. morphine. The text has this: (§1) Also the analgesic and morphine-potentiating activities were investigated on mice. The test results obtained in a "hot plate" test (J. Pharm. Exp. Therp. 80 130 (1944) and Kiserl. Orvostudomany 2, 295 (1950) and results obtained in laparotomic test of Knoll (Animal and Clinical Pharmacologic Techniques in Drug Evaluation. Vol. 2. 305-321 (1967), Year Book Publ. Chicago) are shown in Table 1.

The test system of data set [2] is mice. The data set can be described thus: analgesic activity, "hot plate" test. The conditions noted are these: for ED50: Mus musculus.
From the text: as §1

Data set [3] can be described thus: toxicity in mice, 48 hours observation, Litchfield-Wilcoxon graphic method. As to conditions: mouse, in vivo.
Data set [4] concerns mice. The description is as above.

`O=c1c2c(nc3ccccn13)CCCCC2` [2,3-pentamethylene-4-oxo-4H-pyrido(1,2-a)pyrimidine-hydrochloride]: the “Dose potentiating the activity of 5 mg. morphine, ED50” value (from here on “Dose potentiating the activity”) in data set [1] turned out to be 3.7 mg/kg. Moreover, the ED50 in data set [2] (sc) came out at 66 mg/kg. Moreover, the LD50 at 48 h came to 210 mg/kg in data set [3] (iv) and 630 mg/kg in data set [3] (sc).
Taken in the same sequence, the figures for `O=c1c2c(nc3ccccn13)CCCCCC2` [2,3-hexamethylene-4-oxo-4H-pyrido(1,2-a)pyrimidine-hydrochloride] were 4.5 mg/kg, 105 mg/kg, 125 mg/kg and 500 mg/kg.
On to `Cc1cc(C)n2c(=O)c3c(nc2c1)CCC3` [2,3-trimethylene-6,8-dimethyl-4-oxo-4H-pyrido(1,2-a)pyrimidine-hydrochloride], for which the “Dose potentiating the activity” value in data set [1] amounted to 1.0 mg/kg. In addition, the ED50 in data set [2] (iv) came out at 42 mg/kg. This compound also gave a median lethal dose (LD50) at 48 h in data set [3] (iv) of 120 mg/kg.
Taken in the same sequence, the figures for `Cc1ccn2c(=O)c3c(nc2c1)CCC3` [2,3-trimethylene-8-methyl-4-oxo-4H-pyrido(1,2-a)pyrimidine-hydrochloride] were 4.8 mg/kg, 65 mg/kg and 120 mg/kg.
Regarding `CCOC(=O)c1c[n+](C)c2n(c1=O)C(C)CCC2.COS(=O)(=O)[O-]` (stereo not drawn) [PROBON, reference compound], the “Dose potentiating the activity” value in data set [1] was found to be 25.0 mg/kg. Moreover, the “Hot plate ED50” value in data set [2] (i.v.) is 43 mg/kg; in data set [2] (s.c.), 75 mg/kg. Also, the LD50 in data set [4] (i.v.) was 220 mg/kg; in data set [4] (s.c.), 790 mg/kg.
As to `Cc1cccc2nc3c(c(=O)n12)CCCC3` [2,3-tetramethylene-6-methyl-4-oxo-4H-pyrido(1,2-a)pyrimidine-hydrochloride], the “Dose potentiating the activity” value in data set [1] came to 7.8 mg/kg. This compound also showed an LD50 at 48 h in data set [3] (iv) of 160 mg/kg.
In the case of `Cc1ccc2nc3c(c(=O)n2c1)CCC3` [2,3-trimethylene-7-methyl-4-oxo-4H-pyrido(1,2-a)pyrimidine-hydrochloride], the “Dose potentiating the activity” value in data set [1] was 1.0 mg/kg. Besides, the 50% effective dose (ED50) in data set [2] (iv) was 47 mg/kg. In data set [3] (iv), this compound gave a median lethal dose (LD50) at 48 h of 120 mg/kg.
